# Experimental data published in patent publication US7645802B2 (Biovail Laboratories International SRL., priority 2005, dated 2010).
# Where a name gives a salt, the structure may show the parent alone.
# Assays:
# [1] = comparative forced degradation of bupropion HCl and HBr API salts, closed bottle, 40° C./75% RH; type: physicochemical
# Description: These studies were performed in closed bottles in a stability chamber kept at about 40 degrees C. and about 75% relative humidity. At specified times, the material in the bottles was analyzed for the presence of degradation products and % potency (% assay).
# The samples were exposed to the above conditions in a closed bottle for few days, and then subjected to HPLC analysis.
# The amount of the main degradation products present after treatment were compared with those amounts that were present initially.
# The samples were analyzed after 14 and 24 days (study-1) and 10 days (study II), in a quantitative manner by direct treatment of the whole content of the bottle as per the HPLC standard test method (P05.901.10).
# Rj: Wistar (Han) rats = assay: EEG trace monitoring and behavioural observations in conscious rats
# Description: The effects of the two bupropion salt forms hydrochloride and hydrobromide on central nervous system activity after intraperitoneal administration were evaluated by means of EEG trace monitoring in conscious rats. The method which detects electroencephalographic activity in conscious rats follows that described by Dürmüller et al., (2000) Vigilance-Controlled Quantified EEG in Safety Pharmacology, Current Protocols in Pharmacology Unit 10.6. The study was conducted at Porsolt & Partners Pharmacology, Research Laboratory, Z. A. des Suhards—B.P. 9, 53940 Le Genest-Saint-Isle, France.
# Substances: The formulation excipient used was physiological saline (Laboratoire Aguettant). […] All substances were stored in a dry, dark, controlled access area and maintained at a controlled ambient temperature of about 20±3° C. The vehicle solutions were stored at about +4° C. The substances were administered in a volume of 5 ml/kg body weight. The doses of bupropion hydrochloride are expressed in mg/kg of salt. […] The substances were dissolved in physiological saline and prepared freshly at each day of experimentation.
# Test systems: The rats used were male Rj: Wistar (Han) rats, weighing from about 280 g to 324 g at the time of implantation. They were supplied by Elevage Janvier, 53940 Le Genest-Saint-Isle, France. […] Upon delivery to the laboratory, the animals were housed in groups of 5 animals maximum, in macrolon cages (44×28×19 cm) containing wood litter (Litalabo—SPPS, 95100 Argenteuil, France). The animals had free access to food (Code 113—SAFE, 89290 Augy, France) and tap water. The animal house was maintained under artificial lighting (12 hrs) from 7:00 to 19:00 in a controlled ambient temperature of about 21±3° C. and relative humidity maintained at from about 30% to about 80%. […] Except during the test sessions, the animals had free access to food (Code 113) and tap water. The animals were identified by marking the connector fixed on the animal's head with an indelible pen. Rats were sacrificed at the end of the experiments by lethal injection of pentobarbital (>100 mg/kg i.p.). Animals were not submitted to necropsy. There is no reason to expect that contaminants were present in the feed, water or bedding at levels capable of interfering with the results of the tests. No checks were performed for this particular study.
# Electrode implantation procedure: Implantation surgery was carried out under aseptic conditions. Rats, anesthetized with sodium pentobarbital (60 mg/kg i.p., plus supplementary doses of from about 5 mg/kg to about 10 mg/kg to maintain anesthesia until surgery completion) were implanted with 2 surface EEG electrodes, comprised of miniature titanium screws, placed bilaterally over the frontal-parietal cortex and 2 depth electrodes, comprised of twisted platinium-iridium wires, placed stereotaxically into the hippocampus CA3 area (Paxinos and Watson coordinates interaural: AP+5.0 mm, L±2.5 mm, V+7.0 mm). An additional screw, placed over the right occipital cortex, served as ground electrode. The electrodes were connected to small plugs and the whole assembly was secured on the skull with dental acrylate.
# Apparatus: For the EEG recording, the animals were placed in rectangular Plexiglas cubicles (30×10×25 cm) mounted on treadmills. Five recording units were run in parallel. A turning commutator was attached above the centre of each cubicle, about 30 cm above walking level. On one side, it was connected via an electrically shielded multicore cable to the animal and on the other side to the signal conditioning system (Coulbourn Model V75-01). The system filters were set for all channels to high pass 1 Hz and low pass 150 Hz, respectively. The amplification levels were kept at from 1000× to 10000×. The EEG signals were acquired and processed on a PC (DELL GX620-2800) installed with a 16 channel 200 kHz/12-bit AD acquisition card (NI PCI-6023E).
# [2] = two batches of each API, 10 days
smiles,measurement,setting,value
Br.CC(NC(C)(C)C)C(=O)c1cccc(Cl)c1 (stereo not shown) [bupropion hydrobromide],"resulting degradation products, HBr versus HCl",[1]; 14 and 24 days (study-1),either similar or better for the HBr salt
same,"level of bupropion degradation impurities, HBr versus HCl",[1]; [2],lower than bupropion HCl
same,abnormal behavior,Rj: Wistar (Han) rats; 60 mg/kg i.p.,One rat in the bupropion hydrobromide group had a fatal whole body clonus immediately after administration
same,EEG ANALYSIS Burst cx,"Rj: Wistar (Han) rats; rat, in vivo, ip, 10 mg/kg",−
same,EEG ANALYSIS Burst hipp,"Rj: Wistar (Han) rats; rat, in vivo, ip, 10 mg/kg",−
same,EEG ANALYSIS Complex spike cx,"Rj: Wistar (Han) rats; rat, in vivo, ip, 10 mg/kg",−
same,EEG ANALYSIS Complex spike hipp,"Rj: Wistar (Han) rats; rat, in vivo, ip, 10 mg/kg",−
same,EEG ANALYSIS High amplitude fast frequency cx,"Rj: Wistar (Han) rats; rat, in vivo, ip, 10 mg/kg",−
same,EEG ANALYSIS High amplitude fast frequency hipp,"Rj: Wistar (Han) rats; rat, in vivo, ip, 10 mg/kg",−
same,EEG ANALYSIS High frequency burst activity cx,"Rj: Wistar (Han) rats; rat, in vivo, ip, 10 mg/kg",−
same,EEG ANALYSIS High frequency burst activity hipp,"Rj: Wistar (Han) rats; rat, in vivo, ip, 10 mg/kg",−
same,EEG ANALYSIS Long seizure activity cx,"Rj: Wistar (Han) rats; rat, in vivo, ip, 10 mg/kg",−
same,EEG ANALYSIS Long seizure activity hipp,"Rj: Wistar (Han) rats; rat, in vivo, ip, 10 mg/kg",−
same,EEG ANALYSIS Post ictual activity cx,"Rj: Wistar (Han) rats; rat, in vivo, ip, 10 mg/kg",−
same,EEG ANALYSIS Post ictual activity hipp,"Rj: Wistar (Han) rats; rat, in vivo, ip, 10 mg/kg",−
same,EEG ANALYSIS Repetitive isolated spike cx,"Rj: Wistar (Han) rats; rat, in vivo, ip, 10 mg/kg",−
same,EEG ANALYSIS Repetitive isolated spike hipp,"Rj: Wistar (Han) rats; rat, in vivo, ip, 10 mg/kg",−
same,EEG ANALYSIS Sharp waves hipp,"Rj: Wistar (Han) rats; rat, in vivo, ip, 10 mg/kg",−
same,EEG ANALYSIS Short seizure activity cx,"Rj: Wistar (Han) rats; rat, in vivo, ip, 10 mg/kg",−
same,EEG ANALYSIS Short seizure activity hipp,"Rj: Wistar (Han) rats; rat, in vivo, ip, 10 mg/kg",−
same,EEG ANALYSIS Spike-and-waves cx,"Rj: Wistar (Han) rats; rat, in vivo, ip, 10 mg/kg",−
same,EEG ANALYSIS Spike-and-waves hipp,"Rj: Wistar (Han) rats; rat, in vivo, ip, 10 mg/kg",−
same,EEG ANALYSIS Sharp waves cx,"Rj: Wistar (Han) rats; rat, in vivo, ip, 30 mg/kg",−
same,EEG ANALYSIS Sharp waves hipp,"Rj: Wistar (Han) rats; rat, in vivo, ip, 30 mg/kg",−
same,EEG ANALYSIS Spike-and-waves hipp,"Rj: Wistar (Han) rats; rat, in vivo, ip, 30 mg/kg",−
same,EEG ANALYSIS Sharp waves cx,"Rj: Wistar (Han) rats; rat, in vivo, ip, 60 mg/kg",−
same,EEG ANALYSIS Sharp waves hipp,"Rj: Wistar (Han) rats; rat, in vivo, ip, 60 mg/kg",−
same,EEG ANALYSIS Spike-and-waves cx,"Rj: Wistar (Han) rats; rat, in vivo, ip, 60 mg/kg",−
same,EEG ANALYSIS Spike-and-waves hipp,"Rj: Wistar (Han) rats; rat, in vivo, ip, 60 mg/kg",−
same,EEG ANALYSIS Sharp waves cx,"Rj: Wistar (Han) rats; rat, in vivo, ip, 100 mg/kg",−
same,EEG ANALYSIS Sharp waves hipp,"Rj: Wistar (Han) rats; rat, in vivo, ip, 100 mg/kg",−
same,EEG ANALYSIS Spike-and-waves cx,"Rj: Wistar (Han) rats; rat, in vivo, ip, 100 mg/kg",−
same,EEG ANALYSIS Spike-and-waves hipp,"Rj: Wistar (Han) rats; rat, in vivo, ip, 100 mg/kg",−
"CC(NC(C)(C)C)C(=O)c1cccc(Cl)c1.Cl (racemic) [bupropion hydrochloride, (±)-1-(3-chlorophenyl)-2-[(1,1-dimethylethyl)amino]-1-propanone hydrochloride]",BEHAVIOR Facial clonus,"Rj: Wistar (Han) rats; rat, in vivo, ip, 10 mg/kg",−
same,BEHAVIOR Forelimb clonus,"Rj: Wistar (Han) rats; rat, in vivo, ip, 10 mg/kg",−
same,BEHAVIOR Head twitches,"Rj: Wistar (Han) rats; rat, in vivo, ip, 10 mg/kg",−
same,BEHAVIOR Hyperactivity Sterotypies,"Rj: Wistar (Han) rats; rat, in vivo, ip, 10 mg/kg",−
same,BEHAVIOR Rearing,"Rj: Wistar (Han) rats; rat, in vivo, ip, 10 mg/kg",−
same,BEHAVIOR Wholebody clonus,"Rj: Wistar (Han) rats; rat, in vivo, ip, 10 mg/kg",−
same,EEG ANALYSIS Burst cx,"Rj: Wistar (Han) rats; rat, in vivo, ip, 10 mg/kg",−
same,EEG ANALYSIS Burst hipp,"Rj: Wistar (Han) rats; rat, in vivo, ip, 10 mg/kg",−
same,EEG ANALYSIS Complex spike cx,"Rj: Wistar (Han) rats; rat, in vivo, ip, 10 mg/kg",−
same,EEG ANALYSIS Complex spike hipp,"Rj: Wistar (Han) rats; rat, in vivo, ip, 10 mg/kg",−
same,EEG ANALYSIS High amplitude fast frequency cx,"Rj: Wistar (Han) rats; rat, in vivo, ip, 10 mg/kg",−
same,EEG ANALYSIS High amplitude fast frequency hipp,"Rj: Wistar (Han) rats; rat, in vivo, ip, 10 mg/kg",−
same,EEG ANALYSIS High frequency burst activity hipp,"Rj: Wistar (Han) rats; rat, in vivo, ip, 10 mg/kg",−
same,EEG ANALYSIS Long seizure activity cx,"Rj: Wistar (Han) rats; rat, in vivo, ip, 10 mg/kg",−
same,EEG ANALYSIS Long seizure activity hipp,"Rj: Wistar (Han) rats; rat, in vivo, ip, 10 mg/kg",−
same,EEG ANALYSIS Post ictual activity cx,"Rj: Wistar (Han) rats; rat, in vivo, ip, 10 mg/kg",−
same,EEG ANALYSIS Post ictual activity hipp,"Rj: Wistar (Han) rats; rat, in vivo, ip, 10 mg/kg",−
same,EEG ANALYSIS Repetitive isolated spike cx,"Rj: Wistar (Han) rats; rat, in vivo, ip, 10 mg/kg",−
same,EEG ANALYSIS Repetitive isolated spike hipp,"Rj: Wistar (Han) rats; rat, in vivo, ip, 10 mg/kg",−
same,EEG ANALYSIS Sharp waves cx,"Rj: Wistar (Han) rats; rat, in vivo, ip, 10 mg/kg",−
same,EEG ANALYSIS Sharp waves hipp,"Rj: Wistar (Han) rats; rat, in vivo, ip, 10 mg/kg",−
same,EEG ANALYSIS Short seizure activity cx,"Rj: Wistar (Han) rats; rat, in vivo, ip, 10 mg/kg",−
same,EEG ANALYSIS Short seizure activity hipp,"Rj: Wistar (Han) rats; rat, in vivo, ip, 10 mg/kg",−
same,EEG ANALYSIS Spike-and-waves cx,"Rj: Wistar (Han) rats; rat, in vivo, ip, 10 mg/kg",−
same,EEG ANALYSIS Spike-and-waves hipp,"Rj: Wistar (Han) rats; rat, in vivo, ip, 10 mg/kg",−
same,BEHAVIOR Facial clonus,"Rj: Wistar (Han) rats; rat, in vivo, ip, 30 mg/kg",−
same,BEHAVIOR Forelimb clonus,"Rj: Wistar (Han) rats; rat, in vivo, ip, 30 mg/kg",−
same,BEHAVIOR Head twitches,"Rj: Wistar (Han) rats; rat, in vivo, ip, 30 mg/kg",−
same,BEHAVIOR Hyperactivity Sterotypies,"Rj: Wistar (Han) rats; rat, in vivo, ip, 30 mg/kg",+
same,BEHAVIOR Rearing,"Rj: Wistar (Han) rats; rat, in vivo, ip, 30 mg/kg",−
same,BEHAVIOR Wholebody clonus,"Rj: Wistar (Han) rats; rat, in vivo, ip, 30 mg/kg",−
same,EEG ANALYSIS Sharp waves cx,"Rj: Wistar (Han) rats; rat, in vivo, ip, 30 mg/kg",−
same,EEG ANALYSIS Sharp waves hipp,"Rj: Wistar (Han) rats; rat, in vivo, ip, 30 mg/kg",−
same,EEG ANALYSIS Spike-and-waves cx,"Rj: Wistar (Han) rats; rat, in vivo, ip, 30 mg/kg",−
same,EEG ANALYSIS Spike-and-waves hipp,"Rj: Wistar (Han) rats; rat, in vivo, ip, 30 mg/kg",−
same,BEHAVIOR Facial clonus,"Rj: Wistar (Han) rats; rat, in vivo, ip, 60 mg/kg",−
same,BEHAVIOR Forelimb clonus,"Rj: Wistar (Han) rats; rat, in vivo, ip, 60 mg/kg",−
same,BEHAVIOR Head twitches,"Rj: Wistar (Han) rats; rat, in vivo, ip, 60 mg/kg",−
same,BEHAVIOR Hyperactivity Sterotypies,"Rj: Wistar (Han) rats; rat, in vivo, ip, 60 mg/kg",+
same,BEHAVIOR Rearing,"Rj: Wistar (Han) rats; rat, in vivo, ip, 60 mg/kg",−
same,BEHAVIOR Wholebody clonus,"Rj: Wistar (Han) rats; rat, in vivo, ip, 60 mg/kg",−
same,EEG ANALYSIS Sharp waves cx,"Rj: Wistar (Han) rats; rat, in vivo, ip, 60 mg/kg",−
same,EEG ANALYSIS Sharp waves hipp,"Rj: Wistar (Han) rats; rat, in vivo, ip, 60 mg/kg",−
same,EEG ANALYSIS Spike-and-waves cx,"Rj: Wistar (Han) rats; rat, in vivo, ip, 60 mg/kg",−
same,EEG ANALYSIS Spike-and-waves hipp,"Rj: Wistar (Han) rats; rat, in vivo, ip, 60 mg/kg",−
same,BEHAVIOR Facial clonus,"Rj: Wistar (Han) rats; rat, in vivo, ip, 100 mg/kg",+
same,EEG ANALYSIS Spike-and-waves cx,"Rj: Wistar (Han) rats; rat, in vivo, ip, 100 mg/kg",−
same,EEG ANALYSIS Spike-and-waves hipp,"Rj: Wistar (Han) rats; rat, in vivo, ip, 100 mg/kg",−
"CC(NC(C)(C)C)C(=O)c1cccc(Cl)c1 (stereo not shown) [Bupropion HCl, bupropion hydrochloride]","assay value, HCl versus HBr",[1]; [2],lower than that for the HBr salt
